Experimental data reported in patent publication US7728012B2, “Carboxamide compounds and their use as calpain inhibitors” (Abbott GmbH & Co. KG, priority 2006, dated 2010).

Key:
Type in all cases: biochemical
[1] = biological target: T1, cathepsin K activated from recombinant human procathepsin K (Homo sapiens, UniProt P43235); experiment: Cathepsin K kinetic fluorescence enzyme inhibition assay; conditions: selectivity ratio versus calpain I
T1 construct: purchased Calbiochem 342001; host or cells: E. coli
T1 sequence (P43235 115-329): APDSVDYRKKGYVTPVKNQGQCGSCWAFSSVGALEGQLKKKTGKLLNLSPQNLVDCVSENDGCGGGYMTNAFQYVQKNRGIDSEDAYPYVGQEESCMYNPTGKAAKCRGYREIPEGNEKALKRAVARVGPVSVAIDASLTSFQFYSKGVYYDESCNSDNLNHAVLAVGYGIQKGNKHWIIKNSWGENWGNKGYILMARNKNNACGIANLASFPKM

[2] = biological target: T2, cathepsin B isolated from human liver (Homo sapiens, UniProt P07858); experiment: Cathepsin B kinetic fluorescence enzyme inhibition assay; conditions: selectivity ratio versus calpain I
T2 construct: cathepsin B—isolated from human liver; purchased Calbiochem 219362; host or cells: human liver (tissue isolate)
Procedure, shortened: (§1)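 cat B 0.25 nM + Z-Phe-Arg-AMC 100 μM; cat L 1 nM + Z-Phe-Arg-AMC 2 μM; cat S 0.5 nM (E. coli-expressed) + Z-Val-Val-Arg-AMC 20 μM. 50 mM MES pH 6.0, 2.5 mM L-Cys, RT. Ex 390/em 460, kinetic; Ki app = Cheng-Prusoff from IC50, mean of 2–4 curves.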

[3] = biological target: T3, cathepsin L isolated from human liver (Homo sapiens, UniProt P07711); experiment: Cathepsin L kinetic fluorescence enzyme inhibition assay; conditions: selectivity ratio versus calpain I
T3 construct: cathepsin L—isolated from human liver; purchased Calbiochem 219402; host or cells: human liver (tissue isolate)
Procedure, shortened: as §1

[4] = biological target: T4, calpain-I isolated from human erythrocytes (Homo sapiens, UniProt P07384); experiment: Calpain I kinetic fluorescence enzyme inhibition assay; conditions: apparent Ki from IC50 by Cheng-Prussoff; average of 2 to 4 dose-effect plots
T4 construct: calpain-I—isolated from human erythrocytes; purchased Calbiochem 208713; host or cells: human erythrocytes (tissue isolate)
T4 sequence (P07384 1-714): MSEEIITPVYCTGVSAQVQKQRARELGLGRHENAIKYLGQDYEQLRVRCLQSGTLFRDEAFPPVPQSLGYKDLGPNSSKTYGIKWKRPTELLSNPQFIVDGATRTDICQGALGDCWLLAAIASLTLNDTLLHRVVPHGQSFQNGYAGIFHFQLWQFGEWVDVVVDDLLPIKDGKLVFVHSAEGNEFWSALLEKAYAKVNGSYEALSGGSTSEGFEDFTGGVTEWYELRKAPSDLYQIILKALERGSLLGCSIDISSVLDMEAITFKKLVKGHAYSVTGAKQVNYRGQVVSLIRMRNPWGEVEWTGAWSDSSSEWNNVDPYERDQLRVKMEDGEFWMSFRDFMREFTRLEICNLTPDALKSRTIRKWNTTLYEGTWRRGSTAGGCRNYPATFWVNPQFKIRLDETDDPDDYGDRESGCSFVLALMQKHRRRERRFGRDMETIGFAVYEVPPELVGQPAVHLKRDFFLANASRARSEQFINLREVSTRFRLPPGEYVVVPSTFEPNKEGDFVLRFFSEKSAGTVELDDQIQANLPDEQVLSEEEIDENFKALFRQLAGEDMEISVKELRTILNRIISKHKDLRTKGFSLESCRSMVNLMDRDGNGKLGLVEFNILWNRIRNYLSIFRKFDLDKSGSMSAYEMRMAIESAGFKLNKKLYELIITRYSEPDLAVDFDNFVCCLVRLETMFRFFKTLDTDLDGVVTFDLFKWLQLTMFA
T4 sequence (P04632 1-268 partner): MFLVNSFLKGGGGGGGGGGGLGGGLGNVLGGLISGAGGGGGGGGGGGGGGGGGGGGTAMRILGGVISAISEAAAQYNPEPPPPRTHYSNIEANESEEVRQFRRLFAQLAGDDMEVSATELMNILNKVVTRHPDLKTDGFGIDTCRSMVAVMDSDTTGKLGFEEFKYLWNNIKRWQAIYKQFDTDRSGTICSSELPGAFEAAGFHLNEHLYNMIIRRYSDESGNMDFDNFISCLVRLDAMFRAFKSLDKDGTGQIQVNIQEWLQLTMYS

[5] = biological target: T5, recombinant human cathepsin S (Homo sapiens, UniProt P25774); experiment: Cathepsin S kinetic fluorescence enzyme inhibition assay; conditions: selectivity ratio versus calpain I
T5 construct: purchased Calbiochem 219343; host or cells: E. coli
Procedure, shortened: as §1

T3 sequence (P07711 114-333): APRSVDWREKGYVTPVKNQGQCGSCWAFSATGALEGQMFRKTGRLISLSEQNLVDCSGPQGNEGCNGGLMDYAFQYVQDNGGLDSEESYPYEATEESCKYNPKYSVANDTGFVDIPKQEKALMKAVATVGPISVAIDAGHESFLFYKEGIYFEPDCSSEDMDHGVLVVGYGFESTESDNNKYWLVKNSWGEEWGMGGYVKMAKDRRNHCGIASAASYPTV
T5 sequence (P25774 115-331): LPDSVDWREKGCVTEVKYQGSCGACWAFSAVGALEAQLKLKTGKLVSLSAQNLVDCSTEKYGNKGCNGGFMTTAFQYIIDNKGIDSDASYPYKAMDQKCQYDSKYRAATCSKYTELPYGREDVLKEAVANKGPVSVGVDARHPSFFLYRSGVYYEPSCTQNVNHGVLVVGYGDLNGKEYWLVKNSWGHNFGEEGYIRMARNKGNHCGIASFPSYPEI

SMILES	Sel cat. K (Ki(cathepsin K)/Ki(calpain) ratio) [1]	Ki [4] [nM]	Sel cat. B (Ki(cathepsin B)/Ki(calpain) ratio) [2]	Sel cat. L (Ki(cathepsin L)/Ki(calpain) ratio) [3]	Sel cat. S (Ki(cathepsin S)/Ki(calpain) ratio) [5]
CC(C)c1ccc(-c2ccn(-c3ncccc3C(=O)NC(Cc3ccccc3)C(=O)C(N)=O)n2)cc1 (stereo not drawn) [Example 87, N-[3-Amino-2,3-dioxo-1-(phenylmethyl)propyl]-2-{3-[4-(1-methylethyl)phenyl]-1H-pyrazol-1-yl}pyridine-3-carboxamide]	++ (Ki(cathepsin K)/Ki(calpain) ratio of ≧30)	≤ 40	++ (Ki(cathepsin B)/Ki(calpain) ratio of ≧30)	++ (Ki(cathepsin L)/Ki(calpain) ratio of ≧50)	++ (Ki(cathepsin S)/Ki(calpain) ratio of ≧100)
Cl.NC(=O)C(=O)C(Cc1cccnc1)NC(=O)c1cccnc1-n1ccc(-c2ccccc2)n1 (stereo not drawn) [Example 88, N-[3-Amino-2,3-dioxo-1-(pyridin-3-ylmethyl)propyl]-2-(3-phenyl-1H-pyrazol-1-yl)pyridine-3-carboxamide hydrochloride]	++ (Ki(cathepsin K)/Ki(calpain) ratio of ≧30)	40 to 100	+ (10≦Ki(cathepsin B)/Ki(calpain)<30)	++ (Ki(cathepsin L)/Ki(calpain) ratio of ≧50)	++ (Ki(cathepsin S)/Ki(calpain) ratio of ≧100)
NC(=O)C(=O)C(Cc1ccccc1)NC(=O)c1cccnc1-n1ccc(-c2cc(F)cc(F)c2)n1 (stereo not drawn) [Example 91, N-[3-Amino-2,3-dioxo-1-(phenylmethyl)propyl]-2-[3-(3,5-difluorophenyl)-1H-pyrazol-1-yl]pyridine-3-carboxamide]	+ (10≦Ki(cathepsin K)/Ki(calpain)<30)	≤ 40	++ (Ki(cathepsin B)/Ki(calpain) ratio of ≧30)	++ (Ki(cathepsin L)/Ki(calpain) ratio of ≧50)	++ (Ki(cathepsin S)/Ki(calpain) ratio of ≧100)
COc1ccc(CC(NC(=O)c2cccnc2-n2ccc(-c3ccccc3F)n2)C(=O)C(N)=O)cc1 (stereo not drawn) [Example 92, N-(3-Amino-1-{[4-(methyloxy)phenyl]methyl}-2,3-dioxopropyl)-2-[3-(2-fluorophenyl)-1H-pyrazol-1-yl]pyridine-3-carboxamide]	+ (10≦Ki(cathepsin K)/Ki(calpain)<30)	40 to 100	++ (Ki(cathepsin B)/Ki(calpain) ratio of ≧30)	++ (Ki(cathepsin L)/Ki(calpain) ratio of ≧50)	++ (Ki(cathepsin S)/Ki(calpain) ratio of ≧100)

Now from value to molecule, other results behind:

Sel cat. K (Ki(cathepsin K)/Ki(calpain) ratio) [1]	Ki [4] [nM]	SMILES	Sel cat. B (Ki(cathepsin B)/Ki(calpain) ratio) [2]	Sel cat. L (Ki(cathepsin L)/Ki(calpain) ratio) [3]	Sel cat. S (Ki(cathepsin S)/Ki(calpain) ratio) [5]
+ (10≦Ki(cathepsin K)/Ki(calpain)<30)	≤ 40	COc1ccccc1-c1ccn(-c2ncccc2C(=O)NC(Cc2ccccc2)C(=O)C(N)=O)n1 (stereo not drawn) [Example 90, N-[3-Amino-2,3-dioxo-1-(phenylmethyl)propyl]-2-{3-[2-(methyloxy)phenyl]-1H-pyrazol-1-yl}pyridine-3-carboxamide]	++ (Ki(cathepsin B)/Ki(calpain) ratio of ≧30)	++ (Ki(cathepsin L)/Ki(calpain) ratio of ≧50)	++ (Ki(cathepsin S)/Ki(calpain) ratio of ≧100)
+ (10≦Ki(cathepsin K)/Ki(calpain)<30)	≤ 40	Cc1ccccc1-c1ccn(-c2ncccc2C(=O)NC(Cc2ccccc2)C(=O)C(N)=O)n1 (stereo not drawn) [Example 93, N-[3-Amino-2,3-dioxo-1-(phenylmethyl)propyl]-2-[3-(2-methylphenyl)-1H-pyrazol-1-yl]pyridine-3-carboxamide]	++ (Ki(cathepsin B)/Ki(calpain) ratio of ≧30)	++ (Ki(cathepsin L)/Ki(calpain) ratio of ≧50)	++ (Ki(cathepsin S)/Ki(calpain) ratio of ≧100)
